How the values were obtained:
[1] = tested on: neuronal death after focal cerebral ischemia; assay: In vivo effect on neuronal death after focal cerebral ischemia in mice; settings: 3 mg/kg ip, 5 hours after middle cerebral artery occlusion; mean of six animals
Protocol: 9-In vivo effect on neuronal death after focal cerebral ischemia in mice:
Systemic intraperitoneal (ip) administration of the compounds was carried out 5 hours after cortical infarction induced by the occlusion of the middle cerebral artery in male Swiss mice (20-22 g), according to Duverger et al.--Pharmacology of cerebral ischemia in Krieglstein and Oberpichler, Wissenschaftliche Verlagsgesellschaft, Stuttgart, 1990, 409-413. Four days later, the mice were decapitated and their brains removed and frozen to be then sectioned in coronal slices of […] thickness. Area infarction was measured by image analysis. Reduction of infarcted volume was measured and compared with non treated animal. The percentage indicated the mean reduction of infarct from six animals per group--MK 801, a NMDA antagonist was used as a control substance.

[2] = tested on: vascular reactivity to methoxamine; assay: In vivo effect on endotoxin treated pithed rat; settings: endotoxin 300 μg/kg/h, control 79 ± 9, EDTX 278 ± 34
Protocol: 10-In vivo effect on endotoxin treated pithed rat:
As previously reported, the association of an inhibitor of NO synthase and an inhibitor of cyclooxygenase has a synergistic effect to restore the blood pressure and vascular reactivity in an endotoxinic or septic animal.
Male Sprague Dawley rats (body weight 280-320 g) were pithed. One hour after pithing, animals were given endotoxin (EDTX, Escherichia Coli, lipopolysaccharide, O III, B4 =300 μg/kg/h) for 60 minutes. […]

[3] = tested on: J774 A1 monocyte/macrophage cell line; assay: In vitro effect on nitrite production induced by LPS+INFγ on J774 A1 monocyte/macrophage cell line; assay type: cell-based, murine
Excerpt: 5-In vitro effect on nitrite production induced by LPS+INFγ on J774 A1 monocyte/macrophage cell line:
Macrophage type cells like J774 A1 cell line are interesting to use since they are important cells in inflammation and express large amount of NO (due to the induction of NO synthase) and cyclooxygenase products. They are activated with lipopolysaccharide (LPS) in presence of interferon γ (INFγ). This assay was used to compare the effects of compounds of the invention with the association of their separated parent compounds.
Murine monocyte/macrophage cells were grown in Dubecco's modified Eagle's medium at 37° C. The cells were plated in 24 well culture plate (NUNC) and were used for experiments at about 2×10^5 cells/plate. The cells were activated with LPS (1 μg/ml) from E. Coli (SO55:B5) and murine recombinant IFNγ (50 U/ml) and then incubated in the presence or absence of the compounds. After 48 h nitrite (NO2 -) levels, which correlate with the activation of NO synthase, were assessed in the culture media by the colorimetric method according to Green et al (L. Green, D. Wagner, J. Glogowski, P. Skipper, J. Wishwok and S. Tannenbaum, Analysis of nitrate, nitrite and [15N] nitrate in biological fluids. Analytical Biochemistry 126, 131-138, 1982).

constitutive NO synthase = molecular target: T1, constitutive NO synthase (Rattus norvegicus, UniProt Q62600); assay: In vitro effect on constitutive NO synthase in the isolated rat aorta; assay type: cell-based; settings: isolated rat aorta with endothelium; reversal of carbachol relaxation; PE 1 μM; read-out: Test on constitutive NO synthase IC50
T1 construct: Preparations of isolated rat aorta with endothelium; from tissue; host or cells: isolated thoracic aorta rings with endothelium, Sprague Dawley rat
T1 sequence (Q62600 2-1202 limits assumed): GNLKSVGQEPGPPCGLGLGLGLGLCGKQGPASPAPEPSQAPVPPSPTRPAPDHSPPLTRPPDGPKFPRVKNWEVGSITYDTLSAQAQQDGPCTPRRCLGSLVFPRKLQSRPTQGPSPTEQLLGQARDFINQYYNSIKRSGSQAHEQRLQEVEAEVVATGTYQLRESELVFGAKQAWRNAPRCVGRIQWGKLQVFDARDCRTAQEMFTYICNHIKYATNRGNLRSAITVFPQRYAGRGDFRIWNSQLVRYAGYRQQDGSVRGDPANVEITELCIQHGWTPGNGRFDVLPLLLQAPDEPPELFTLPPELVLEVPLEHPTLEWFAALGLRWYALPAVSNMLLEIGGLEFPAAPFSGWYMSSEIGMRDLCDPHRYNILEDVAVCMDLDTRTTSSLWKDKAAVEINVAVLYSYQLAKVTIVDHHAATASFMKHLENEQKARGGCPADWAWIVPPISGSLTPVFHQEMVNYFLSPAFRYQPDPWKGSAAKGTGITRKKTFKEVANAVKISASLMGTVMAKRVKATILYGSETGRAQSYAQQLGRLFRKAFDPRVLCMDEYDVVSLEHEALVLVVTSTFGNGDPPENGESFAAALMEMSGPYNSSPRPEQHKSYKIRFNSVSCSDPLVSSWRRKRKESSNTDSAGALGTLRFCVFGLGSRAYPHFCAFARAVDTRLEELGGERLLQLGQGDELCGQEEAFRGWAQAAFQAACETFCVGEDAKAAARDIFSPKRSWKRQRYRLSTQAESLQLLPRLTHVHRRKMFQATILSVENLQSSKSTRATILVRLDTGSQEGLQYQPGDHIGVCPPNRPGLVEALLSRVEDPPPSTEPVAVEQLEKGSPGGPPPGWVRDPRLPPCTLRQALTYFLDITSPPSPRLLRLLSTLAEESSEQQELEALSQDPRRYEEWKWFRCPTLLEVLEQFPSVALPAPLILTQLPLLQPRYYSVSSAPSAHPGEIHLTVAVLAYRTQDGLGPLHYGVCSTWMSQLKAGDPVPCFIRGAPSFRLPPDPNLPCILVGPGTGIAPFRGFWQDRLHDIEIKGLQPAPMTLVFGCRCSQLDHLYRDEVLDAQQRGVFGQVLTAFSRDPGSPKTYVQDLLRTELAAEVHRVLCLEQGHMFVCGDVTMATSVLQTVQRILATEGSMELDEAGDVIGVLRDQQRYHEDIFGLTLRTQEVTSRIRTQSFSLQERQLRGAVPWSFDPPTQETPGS
Protocol: 1-In vitro effect on constitutive NO synthase in the isolated rat aorta;
Preparations of isolated rat aorta with endothelium were prepared as previously described (M. Auguet, S. Delaflotte, P. E. Chabrier and P. Braquet--Comparative effects of endothelium and phorbol 12-13 dibutyrate in rat aorta, Life Sciences, 1989, 45, 2051-2059).
Male Sprague Dawley rats (270-360 g, Charles River, Paris) were sacrificed by cervical dislocation and the thoracic aorta removed and cleaned of the surrounding tissue. Rings 2 mm wide were suspended in organ baths containing 10 ml of physiological solution (for composition, see below) under a tension of 2 g at 37° C. and gassed with O2 /CO2 (95%/5%). Contractile responses were measured, using force displacement transducers (Slatham UC2) coupled to a Gould 8000 S polygraph. An equilibration period of one hour was allowed before experimentation. Normal physiological solution was composed of (mM): NaCl, 118; KCl, 4.7; CaCl2, 2.5; KH2 PO4, 1.2; MgSO4, 0.6; NaHCO3, 25; glucose, 11. After equilibration in normal medium, the preparation was subjected to a near maximal dose (about 95%) of phenylephrine (PE, 1 μM). When the contraction was stable, carbachol (10 μM) was tested in order to evaluate the presence or absence of endothelium. […]

inducible NO synthase = molecular target: T2, inducible NO synthase (Rattus norvegicus, UniProt Q06518); assay: In vitro effect on inducible NO synthase in the isolated rat aorta from endotoxin-shocked animal; assay type: cell-based; settings: aorta from endotoxin-treated rats, endothelium disrupted; PE 1 μM; read-out: Test on inducible NO synthase IC50
T2 construct: the compounds were tested on isolated rat aorta from shocked animal; from tissue; host or cells: thoracic aorta rings, endothelium removed, from endotoxin-treated Sprague Dawley rats

cyclooxygenase [4] = molecular target: T3, cyclooxygenase (Mus musculus, UniProt Q05769); assay: In vitro effect on prostaglandin (6 keto PGF1α) production induced by LPS+IFNγ on J774A1 monocyte/macrophage cell line; assay type: cell-based, murine; settings: for effect on release of 6 keto PGF1α: LPS+IFNγ, J774A1 culture media
T3 construct: main cyclooxygenase products produced by J774A1 cell line; endogenous in cells
T3 sequence (Q05769 18-604): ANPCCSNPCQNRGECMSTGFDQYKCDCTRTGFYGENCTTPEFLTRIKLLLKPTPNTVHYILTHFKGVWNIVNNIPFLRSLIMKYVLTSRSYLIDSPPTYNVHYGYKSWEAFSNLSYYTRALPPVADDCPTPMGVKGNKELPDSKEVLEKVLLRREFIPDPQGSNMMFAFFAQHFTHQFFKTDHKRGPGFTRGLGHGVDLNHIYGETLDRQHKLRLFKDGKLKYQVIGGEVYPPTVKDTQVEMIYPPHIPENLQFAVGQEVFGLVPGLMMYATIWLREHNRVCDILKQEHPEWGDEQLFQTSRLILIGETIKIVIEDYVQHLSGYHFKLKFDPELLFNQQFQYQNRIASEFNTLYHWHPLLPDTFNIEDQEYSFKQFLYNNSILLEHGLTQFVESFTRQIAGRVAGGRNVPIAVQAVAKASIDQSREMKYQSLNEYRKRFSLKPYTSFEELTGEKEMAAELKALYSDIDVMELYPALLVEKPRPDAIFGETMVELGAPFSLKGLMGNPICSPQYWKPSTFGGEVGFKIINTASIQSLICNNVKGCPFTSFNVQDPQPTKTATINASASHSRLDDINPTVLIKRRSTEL
Protocol: 6-In vitro effect on prostaglandin production induced by LPS+IFNγ on J774A1 monocyte/macrophage cell line:
Levels of one of the main cyclooxygenase products produced by J774A1 cell line (i.e.: 6 keto PGF1α) the stable metabolite of PGI2 were assessed in the culture media by a specific radioimmunoassay (NEN, Kit NEK 025).

cyclooxygenase [5] = molecular target: T4, cyclooxygenase (Oryctolagus cuniculus, UniProt O97554); assay: In vitro effect on arachidonic acid induced aggregation of washed rabbit platelets; assay type: cell-based; settings: arachidonic acid 0.5 mM, read-out: IC50 (arachidonic acid induced platelet aggregation)
T4 construct: arachidonic acid induced aggregation of washed rabbit platelets; endogenous in cells; host or cells: washed platelets of male New Zealand rabbits
T4 sequence (O97554 31-606): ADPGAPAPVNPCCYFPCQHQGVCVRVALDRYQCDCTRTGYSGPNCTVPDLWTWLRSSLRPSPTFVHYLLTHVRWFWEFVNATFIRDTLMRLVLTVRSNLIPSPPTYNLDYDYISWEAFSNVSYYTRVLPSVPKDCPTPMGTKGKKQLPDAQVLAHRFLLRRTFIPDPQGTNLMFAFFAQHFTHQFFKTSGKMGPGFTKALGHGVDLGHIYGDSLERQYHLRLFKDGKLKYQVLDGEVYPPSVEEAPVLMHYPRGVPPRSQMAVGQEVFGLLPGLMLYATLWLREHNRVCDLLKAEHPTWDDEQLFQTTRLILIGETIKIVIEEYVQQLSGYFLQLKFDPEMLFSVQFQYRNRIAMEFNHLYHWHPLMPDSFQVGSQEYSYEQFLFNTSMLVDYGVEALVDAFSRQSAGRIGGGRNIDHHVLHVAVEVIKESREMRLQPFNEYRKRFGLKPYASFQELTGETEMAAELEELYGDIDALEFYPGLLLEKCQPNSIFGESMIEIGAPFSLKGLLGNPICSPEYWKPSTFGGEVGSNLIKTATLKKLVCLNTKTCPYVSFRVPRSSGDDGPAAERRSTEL
Protocol: This protocol was used to assay the effect of the compounds on the cyclooxygenase. […] Blood was taken from the auricular artery of male New Zealand rabbit (2.5 kg mean body weight) on ACD (citric acid/sodium citrate/dextrose) as anticoagulant. The washed platelets were prepared and then transferred in the cuvet of the aggregometer (Chronolog aggregometer Coultronics).

## CNC(=N)NCCC[C@H](N)C(=O)O.O=C(O)c1ccccc1O [Example 2]
[1]
  Reduction of infarct: -55%
[2]; dose 30 mg/kg/h
  vascular reactivity to methoxamine DE50: 98 ± 35 µg/kg
[3]; 10^-4 M, LPS+INF, J774
  % OF INHIBITION of nitrite production: 75.5%
[3]; 10^-5 M, LPS+INF, J774
  % OF INHIBITION of nitrite production: 61%
[3]; 10^-6 M, LPS+INF, J774
  % OF INHIBITION of nitrite production: 53%

## CNC(=N)NCCCC(N)C(=O)O.Cc1cccc(Nc2ccccc2C(=O)O)c1C [Example 12]
Constitutive NO synthase
  IC50: 10 µM

## CC1=C(CC(=O)O)c2cc(F)ccc2/C1=C\c1ccc([S+](C)[O-])cc1.N=C(NCCC[C@H](N)C(=O)O)N[N+](=O)[O-] (stereo not shown) [Example 13]
[3]; 10^-4 M, LPS+INF, J774
  % OF INHIBITION of nitrite production: 71%
[3]; 10^-5 M, LPS+INF, J774
  % OF INHIBITION of nitrite production: 63%
[3]; 10^-6 M, LPS+INF, J774
  % OF INHIBITION of nitrite production: 56%

## COC(=O)[C@H](CCCNC(N)=N[N+](=O)[O-])NC(=O)c1ccccc1OC(C)=O [Example 16]
Constitutive NO synthase
  IC50: 9 µM
Inducible NO synthase
  IC50: 4 µM

## COC(=O)C(CCCNC(=N)N[N+](=O)[O-])NC(=O)CC1=C(C)C(=Cc2ccc([S+](C)[O-])cc2)c2ccc(F)cc21 (stereo not shown) [Example 17]
[1]
  Reduction of infarct: -69%
[3]; Mus musculus, J774.A1, 10^-4 M, LPS+INF, J774
  inhibition at 100 µM: 73%
[3]; Mus musculus, J774.A1, 10^-5 M, LPS+INF, J774
  inhibition at 10 µM: 57%
[3]; Mus musculus, J774.A1, 10^-6 M, LPS+INF, J774
  inhibition at 1 µM: 49%
Cyclooxygenase [4]; J774.A1, 10^-4 M, LPS+INF, J774A1, read-out: % OF INHIBITION of 6-keto PG F1 production
  inhibition at 100 µM: 92%
Cyclooxygenase [4]; J774.A1, 10^-5 M, LPS+INF, J774A1, read-out: % OF INHIBITION of 6-keto PG F1 production
  inhibition at 10 µM: 83%
Cyclooxygenase [4]; J774.A1, 10^-6 M, LPS+INF, J774A1, read-out: % OF INHIBITION of 6-keto PG F1 production
  inhibition at 1 µM: 74%

## COC(=O)[C@@H](N)CCCNC(N)=N[N+](=O)[O-] [L-NAME, N-ω-nitro-L-Arginine methyl ester, reference compound]
Cyclooxygenase [4]
  effect on release of 6 keto PGF1α: not affected

## NC(=N[N+](=O)[O-])NCCC[C@H](N)C(=O)O [L-NO, N-ω-nitro-L-Arginine, reference compound]
[3]; Mus musculus, J774.A1, activated cells, LPS 1 μg/ml + IFNγ 50 U/ml, 48 h
  IC50: 15 µM
Cyclooxygenase [4]
  effect on release of 6 keto PGF1α: not affected

## C[C@]12N[C@H](Cc3ccccc31)c1ccccc12 [MK 801, reference compound]
[1]
  Reduction of infarct: -51%

## CC(=O)Oc1ccccc1C(=O)O [aspirin, acetylsalicylic acid, reference compound]
[2]; dose 150 mg/kg/h
  vascular reactivity to methoxamine DE50: 136 ± 29 µg/kg
Cyclooxygenase [5]
  IC50: 200 µM
Cyclooxygenase [4]
  effect on release of 6 keto PGF1α: abolished in a dose dependent manner

— patent US5360925A, “Dual inhibitors of no synthase and cyclooxygenase, process for their preparation and therapeutical compositions containing them” (priority 1992, dated 1994)
